# Details: buffer; pH 7.4; 200.0 µM
row,Compound,solubility kinetic [µg/mL]
1,COc1ccc(/C=C/C(=O)O)cc1S(=O)(=O)N1CCCCC1,> 48.8
2,O=C(COC(=O)c1ccc2c(c1)OCCO2)NCc1ccccc1Cl,5.2
3,CCc1nnc(NC(=O)CSc2nc(C)cs2)s1,> 45.1
4,N=C1SC(CC(=O)Nc2ccc([N+](=O)[O-])cc2)C(=O)N1c1ccccc1 (stereo not given),1
5,CCOC(=O)c1sc(=NC(=O)c2ccccc2)n(C)c1C,0.4
6,Cc1cc(C(=O)OCC(=O)NC2CCCC(C)C2C)c(C)o1 (stereo not given),12.4
7,CCOC(=O)c1cccc(NC(=O)c2ccc3c(c2)OCO3)c1,2.7
8,CCCC(=O)Nc1ccc2c(c1)nc1n2CCN(CCOC)C1,> 47.5
9,O=C(O)C(Sc1ccncn1)c1ccccc1 (stereo not given),26.4
10,NC(=O)COC(=O)CC(c1ccccc1)c1ccccc1,> 42.5
11,O=C(NC1CCCCCCC1)c1ccc(Br)o1,37.2
12,COc1ccc(OC)c(C2=NOC(C(=O)Nc3cc(C)on3)C2)c1 (stereo not given),44.1
13,Cc1ccc(N2C(=O)CN(Cc3cccs3)C2=S)cc1C,< 0.3
14,CC(Sc1nnc(-c2ccco2)n1C)C(=O)NC1CCCC1 (stereo not given),> 48.1
15,O=C(Cc1ccccc1)NCC(=O)OCc1cccc([N+](=O)[O-])c1,> 49.2
16,COc1ccc(C=O)c2[nH]c3c(Cl)ncnc3c12,3.4
17,CSc1ncc(C(=O)Nc2ccc(Cl)cc2)c(C)n1,12.7
18,COc1ccc(-n2c(O)c(C=NCc3ccc4c(c3)OCO4)c(=O)[nH]c2=O)cc1,6.8
19,Cn1c(=O)c2c(ncn2CC(=O)OCCCC(=O)c2ccc(Br)cc2)n(C)c1=O,28
20,CC(=O)Oc1ccc(C(=O)N2c3ccccc3NC(=O)C2C)cc1 (stereo not given),> 48.7

row,Compound,solubility kinetic [µg/mL]
1,O=C(NCCc1cccc(Cl)c1)c1cccs1,> 39.9
2,O=C(NC(=S)NC1CCCCC1)c1ccc(Cl)cc1,< 0.3
3,COc1ccc(OC)c(NC(=O)NCc2cccnc2)c1,> 43.1
4,CC[N+](CC)(CC#CCO)CC#Cc1ccccc1.[Br-],44.2
5,Cc1ccc(C)c(NC(=O)CCC(=O)NN=C2CCCC2)c1,> 45.2
6,COc1cc(C(=O)OCC(=O)Nc2ccc(S(=O)(=O)N3CCCC3)cc2)cc(OC)c1OC,18.1
7,O=C(COC(=O)c1cccs1)Nc1cccc(Cl)c1,7.6
8,COc1ccc(/C=C/C(=O)Nc2ccc(C)c(S(=O)(=O)N3CCOCC3)c2)cc1,7.4
9,CSc1ncc(CN2CCN(C(C)C)C(CCO)C2)cn1 (stereo not given),> 46.6
10,N/C(=N\c1nc2ccccc2o1)NC(=O)c1cccc(Br)c1,< 0.2
11,CN1C(c2ccccc2)=NO[C@]1(C)c1ccccc1,35.9
12,CCC(C)c1c(O)nc(SCC(=O)N2CCCCC2)[nH]c1=O (stereo not given),> 48.8
13,O=C(CN1CCOCC1)NCc1ccccc1Cl,> 40.3
14,Cc1ccc(CNC(=O)C2CCCN(c3nc(C)cc(C)n3)C2)cc1 (stereo not given),0.6
15,c1ccc2c(c1)CC1(CCCC1)N=C2N1CCOCC1,35.5
16,Cc1ccc(NC(=S)NC(=O)C2CCCCC2)c(Br)c1,1.7
17,O=C1ON=C(c2ccccc2)/C1=C\c1ccco1,35.2
18,CCC(=O)Oc1ccc(C2NC(=O)c3ccccc3O2)cc1OC (stereo not given),28.5
19,COc1cc(C(=O)NC2CCCc3ccccc32)cc(OC)c1OC (stereo not given),5.9
20,CCC(=O)Nc1cccc(C(=O)Nc2nccs2)c1,> 41.3

row,Compound,solubility kinetic [µg/mL]
1,COc1ccccc1C(=O)Nc1cccc(C(=O)c2ccccc2)c1,3.5
2,O=C(OCC(=O)N1CCCC1)c1ccc(Cl)nc1,> 40.3
3,CCCn1c(C)c(C(=O)OCC)c(O)c(-c2ccccc2)c1=O,> 47.3
4,O=C(NCc1ccc(-n2cccc2)cc1)c1cccc(F)c1,1.7
5,CC(=O)N1CCC(c2c[nH]c3ccccc23)CC1,> 36.3
6,COc1cc(OC)cc(C(=O)Nc2nnc(-c3cccnc3)o2)c1,> 48.9
7,COc1cccc(NC(=S)N(CCN(C)C)C(C)c2cccnc2)c1 (stereo not given),> 53.8
8,Cc1cc(C)nc(SCc2cn3c(C)cc(C)nc3n2)n1,> 44.9
9,CC1(C)NC(=O)N(CC(=O)OCC(=O)c2ccc(Cl)s2)C1=O,> 51.7
10,CCc1noc(C)c1C(=O)Nc1ccc(C(F)(F)F)cc1,7.5
11,CN(CC(=O)Nc1ccc(F)c(F)c1F)C(=O)C1CCCO1 (stereo not given),> 47.4
12,Cc1nc(NC(=O)COC(=O)CNC(=O)c2ccco2)c(Cl)cc1Cl,> 57.9
13,CN1CCN(C(=O)c2ccc(-c3ccc(Br)cc3)o2)CC1,> 52.4
14,COc1ccc(C(C)C)cc1S(=O)(=O)NCC1CCCO1 (stereo not given),44.3
15,COc1ccc(C(=O)NCCSCc2ccc(Cl)cc2)cc1OC,3.9
16,O=C(NC(=S)NCc1ccco1)c1ccccc1[N+](=O)[O-],8.7
17,CCCc1nc2ccc(N)cc2c(=O)n1Cc1ccccc1Cl,13
18,COc1cccc(C(=O)COc2cccc(NC(=O)c3ccco3)c2)c1,14
19,COc1cccc(S(=O)(=O)Nc2ccc3c(c2)OCCO3)c1,> 48.2
20,O=C(Cc1ccc(Cl)cc1)NCCCNC(=O)c1cccnc1,46.2

# From PubChem BioAssay AID1996
